Values quoted from earlier work in patent US10332616B2, “Movable type method applied to protein-ligand binding” (University of Florida Research Foundation, Inc., priority 2013, dated 2019).

conditions: aqueous solvation free energy, charged compounds (ions)

| SMILES | Exp. ΔGsolv [kcal/mol] |
| --- | --- |
| CCC(=O)O [i060, propanoicacid, reference compound] | -76.20 |
| COc1ccc(N)cc1 [i093, 4-methoxyaniline, reference compound] | -71.20 |
| C=CCN [i008, allylamine, reference compound] | -72.00 |
| O=C(O)CCl [i119, chloroaceticacid, reference compound] | -69.70 |
| CCCCCC(=O)O [i061, hexanoicacid, reference compound] | -74.60 |
| C=CC(=O)O [i062, acrylicacid, reference compound] | -74.00 |

same assay, conditions: experimental solvation free energy, neutral compounds test set

| Exp. ΔGsolv [kcal/mol] | SMILES |
| --- | --- |
| -9.3 | OCCO [Compound 0046eth] |
| -1.27 | CCCSCCC [Compound 0143dip] |
| -1.66 | CCCOC [Compound 0064met] |
| -3.12 | C1CCOCC1 [Compound 0244tet] |
| -1.92 | COC [Compound 0060dim] |
| -5.68 | O=C(O)c1ccccc1Nc1cccc(C(F)(F)F)c1 [test3021] |
| -7.17 | C1COCCN1 [Compound 0149mor] |
| -3.03 | CCCCC=O [Compound 0073pen] |
| -2.78 | COC=O [Compound 0091met] |
| -10.48 | O=Cc1ccc(O)cc1 [Compound 0151phy] |
| -2.86 | CCCOC(C)=O [Compound 0097pro] |
| -3.18 | CCCC=O [Compound 0072but] |
| -5.49 | OC1CCCC1 [Compound 0051cyc] |
| -9.51 | COC(=O)c1ccc(O)cc1 [test2020] |
| -6.16 | CCCCC(=O)O [Compound 0089pen] |
| -6.55 | COCCN [Compound 0147met] |
| -6.34 | CC(=O)OCCOC(C)=O [test0013] |
| -8.61 | O=S1(=O)CCCC1 [test2027] |

| SMILES | Exp. ΔGsolv [kcal/mol] |
| --- | --- |
| N#Cc1c(Cl)cccc1Cl [Compound 0426dcl] | -5.22 |
| Cc1ccc(C(=O)N(C)C)cc1 [test0006] | -9.76 |
| CC(=O)Nc1ccccc1O [test3004] | -11.61 |
| CCOP(=S)(OCC)Oc1ccc(Cl)cc1Cl [Compound 0438pho] | -3.86 |
| Cc1ccc(N)cc1 [n011] | -5.55 |
| CCc1cccc(CC)c1N(COC)C(=O)CCl [test1007] | -8.2 |
| CN(C)c1ccccc1 [n014] | -3.58 |
| OC(C(F)(F)F)C(F)(F)F [Compound 0212hex] | -3.77 |
| CN [Compound 0228met] | -4.56 |
| CCN(CC)c1c([N+](=O)[O-])cc(C(F)(F)F)c(N)c1[N+](=O)[O-] [test1027] | -5.7 |
| CCN [Compound 0103eth] | -4.5 |
| O=[N+]([O-])c1c(Cl)c(Cl)c(Cl)c(Cl)c1Cl [test2024] | -5.22 |
| O=C1C2CC=CCC2C(=O)N1SC(Cl)(Cl)Cl (stereo not drawn) [test1014] | -9 |
| COc1ccc(C(=O)O)cc1 [test3014] | -9.15 |
| COC(=O)c1sccc1S(=O)(=O)NC(=O)Nc1nc(C)nc(OC)n1 [test1054] | -16.2 |
| Nc1cnn(-c2ccccc2)c(=O)c1Cl [test1049] | -16.4 |
| FC(F)OC(Cl)C(F)(F)F (stereo not drawn) [Compound 0209chl] | 0.11 |

same assay, conditions: experimental solvation free energy; test set with 372 neutral compounds

| SMILES | Exp. ΔGsolv [kcal/mol] |
| --- | --- |
| c1ccc2cc3ccccc3cc2c1 [Compound 0042ant] | -4.23 |
| CCCCCCCC [Compound 0008noc] | 2.89 |
| Cn1cnc2c(N)ncnc21 [Compound 0402adn] | -13.6 |
| CCCCCC [Compound 0006nhe] | 2.49 |
| CC(C)CBr [Compound 0418bri] | -0.03 |
| CC(C)=O [Compound 0075pro] | -3.85 |
| FC(F)Cl [Compound 0199chl] | -0.5 |
| C=CCCCC [Compound 0029hex] | 1.68 |
| C#CCCCC [Compound 0034hex] | 0.29 |
| BrC(Br)Br [Compound 0179tri] | -1.98 |
| CC1CCCCC1 [Compound 0019met] | 1.71 |
| CC(C)Cl [Compound 0168chl] | -0.25 |
| CC#N [Compound 0126eth] | -3.89 |
| FC(F)(F)C(F)(F)C(F)(F)F [Compound 0406oct] | 4.28 |
| FC(F)(Cl)C(F)(Cl)Cl [Compound 0206tri] | 1.77 |
| c1ccc2ccccc2c1 [Compound 0041nap] | -2.39 |
| C=CCC [Compound 0025buta] | 1.38 |
| Clc1ccc(Cl)cc1 [Compound 0176pdi] | -1.01 |
| CCC [Compound 0003pro] | 1.96 |
| CCCCCCl [Compound 0410clp] | 0.07 |
| CCCC [Compound 0004nbu] | 2.08 |
| Cc1cccc(C)c1 [Compound 0039mxy] | -0.84 |

| SMILES | Exp. ΔGsolv [kcal/mol] |
| --- | --- |
| CCCC(C)=O [Compound 0078pen] | -3.53 |
| FC(F)(F)C(F)(F)F [Compound 0405hex] | 3.94 |
| CCc1cnccn1 [Compound 0230eth] | -5.51 |
| Cc1ccncc1 [Compound 0121met] | -4.94 |
| CCCC#N [Compound 0128butb] | -3.64 |
| Clc1cccc(-c2ccccc2)c1Cl [Compound 0415dcl] | -2.45 |
| CCC(C)=O [Compound 0076but] | -3.64 |
| CC1=CC(=O)CC(C)(C)C1 [test1034] | -5.2 |
| CCC(C)Cl (stereo not drawn) [Compound 0409clb] | 0.07 |
| CCC(C)c1cc([N+](=O)[O-])cc([N+](=O)[O-])c1O (stereo not drawn) [test1028] | -6.2 |
| C[C@@H]1CCCC[C@@H]1C [Compound 0020cis] | 1.58 |
| Cl/C=C\Cl [Compound 0171Zdi] | -1.17 |
| CCCBr [Compound 0182bro] | -0.56 |
| COP(=S)(OC)Oc1cc(Cl)c(Cl)cc1Cl [Compound 0444pho] | -5.06 |
| ClCC(Cl)Cl [Compound 0166tri] | -1.95 |
| ClC1=C(Cl)C2(Cl)C3C(Cl)C(Cl)CC3C1(Cl)C2(Cl)Cl (stereo not drawn) [test1018] | -3.4 |
| C#CC=C [Compound 0148but] | 0.04 |
| FC(F)(F)Br [Compound 0197bro] | 1.79 |
| Cc1cccnc1 [Compound 0120met] | -4.77 |
| BrCBr [Compound 0178dib] | -2.11 |
| CNc1ccccc1 [Compound 0122Nme] | -4.68 |
